# Experimental data: the supplement of paper PMC10307832
# Columns and labels:
# Assay in all cases: relative viability (nuclei count vs DMSO), 5 days (fraction); higher = more cells survive
# BGJ398 + AZD7762 = compound: CCN1CCN(c2ccc(Nc3cc(N(C)C(=O)Nc4c(Cl)c(OC)cc(OC)c4Cl)ncn3)cc2)CC1 [BGJ398] + NC(=O)Nc1cc(-c2cccc(F)c2)sc1C(=O)N[C@H]1CCCNC1 [AZD7762] (partner 0.2 µM)
# How it was run: (§1)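 Lung cancer cell lines, seeded in 1536-well plates, were treated the following day by pin tool with a single drug or with five library-drug doses (not always all listed) in √10 steps on top of a fixed anchor-drug dose. Cells were fixed and nuclei stained in one step after 5 days, and nuclei were counted. Relative viability is the nuclei count for treated wells divided by that for vehicle wells, reported as medians of duplicate plates.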
# [1] = compound: C1=CC2=NC=CN=C2C=C1/C=C/3\C(=O)NC(=O)S3 + CCNC(=O)c1noc(-c2cc(C(C)C)c(O)cc2O)c1-c1ccc(CN2CCOCC2)cc1 [Luminespib] (partner 0.01 µM)
# How it was run: as §1
# BGJ398 + Pictilisib = compound: CCN1CCN(c2ccc(Nc3cc(N(C)C(=O)Nc4c(Cl)c(OC)cc(OC)c4Cl)ncn3)cc2)CC1 [BGJ398] + CS(=O)(=O)N1CCN(Cc2cc3nc(-c4cccc5[nH]ncc45)nc(N4CCOCC4)c3s2)CC1 [Pictilisib] (partner 1 µM)
# How it was run: as §1
# [2] = compound: C1=CC2=NC=CN=C2C=C1/C=C/3\C(=O)NC(=O)S3 + O=C(c1cc(Cc2n[nH]c(=O)c3ccccc23)ccc1F)N1CCN(C(=O)C2CC2)CC1 [Olaparib] (partner 8 µM)
# How it was run: as §1
cell line,measurement,setting,value
201T,relative viability,BGJ398 + AZD7762; first compound 0.01 µM,0.657
same,relative viability,BGJ398 + AZD7762; first compound 0.03162 µM,0.595
same,relative viability,BGJ398 + AZD7762; first compound 0.1 µM,0.63
same,relative viability,BGJ398 + AZD7762; first compound 0.3162 µM,0.521
same,relative viability,BGJ398 + AZD7762; first compound 1 µM,0.747
same,relative viability,[1]; first compound 0.02 µM,1.04
same,relative viability,[1]; first compound 0.06325 µM,1.04
same,relative viability,[1]; first compound 0.2 µM,1.04
same,relative viability,[1]; first compound 0.6325 µM,1.02
same,relative viability,[1]; first compound 2 µM,0.986
same,relative viability,BGJ398 + Pictilisib; first compound 0.01 µM,0.804
same,relative viability,BGJ398 + Pictilisib; first compound 0.03162 µM,0.659
same,relative viability,BGJ398 + Pictilisib; first compound 0.1 µM,0.641
same,relative viability,BGJ398 + Pictilisib; first compound 0.3162 µM,0.652
same,relative viability,BGJ398 + Pictilisib; first compound 1 µM,0.559
same,relative viability,[2]; first compound 0.02 µM,0.878
same,relative viability,[2]; first compound 0.06325 µM,0.81
same,relative viability,[2]; first compound 0.2 µM,0.844
same,relative viability,[2]; first compound 0.6325 µM,0.828
same,relative viability,[2]; first compound 2 µM,0.866
NCI-H2170,relative viability,BGJ398 + AZD7762; first compound 0.01 µM,0.906
same,relative viability,BGJ398 + AZD7762; first compound 0.03162 µM,0.843
same,relative viability,BGJ398 + AZD7762; first compound 0.1 µM,1.01
same,relative viability,BGJ398 + AZD7762; first compound 0.3162 µM,0.861
same,relative viability,BGJ398 + AZD7762; first compound 1 µM,0.912
same,relative viability,[1]; first compound 0.02 µM,0.757
same,relative viability,[1]; first compound 0.06325 µM,0.942
same,relative viability,[1]; first compound 0.2 µM,0.79
same,relative viability,[1]; first compound 0.6325 µM,0.525
same,relative viability,[1]; first compound 2 µM,0.717
same,relative viability,BGJ398 + Pictilisib; first compound 0.01 µM,0.348
same,relative viability,BGJ398 + Pictilisib; first compound 0.03162 µM,0.279
same,relative viability,BGJ398 + Pictilisib; first compound 0.1 µM,0.311
same,relative viability,BGJ398 + Pictilisib; first compound 0.3162 µM,0.287
same,relative viability,BGJ398 + Pictilisib; first compound 1 µM,0.288
same,relative viability,[2]; first compound 0.02 µM,0.55
same,relative viability,[2]; first compound 0.06325 µM,0.594
same,relative viability,[2]; first compound 0.2 µM,0.609
same,relative viability,[2]; first compound 0.6325 µM,0.577
same,relative viability,[2]; first compound 2 µM,0.563
NCI-H460,relative viability,BGJ398 + AZD7762; first compound 0.01 µM,0.73
same,relative viability,BGJ398 + AZD7762; first compound 0.03162 µM,0.655
same,relative viability,BGJ398 + AZD7762; first compound 0.1 µM,0.593
same,relative viability,BGJ398 + AZD7762; first compound 0.3162 µM,0.53
same,relative viability,BGJ398 + AZD7762; first compound 1 µM,0.621
same,relative viability,[1]; first compound 0.02 µM,0.0317
same,relative viability,[1]; first compound 0.06325 µM,0.0415
same,relative viability,[1]; first compound 0.2 µM,0.0283
same,relative viability,[1]; first compound 0.6325 µM,0.0303
same,relative viability,[1]; first compound 2 µM,0.0362
same,relative viability,BGJ398 + Pictilisib; first compound 0.01 µM,0.343
same,relative viability,BGJ398 + Pictilisib; first compound 0.03162 µM,0.435
same,relative viability,BGJ398 + Pictilisib; first compound 0.1 µM,0.393
same,relative viability,BGJ398 + Pictilisib; first compound 0.3162 µM,0.408
same,relative viability,BGJ398 + Pictilisib; first compound 1 µM,0.343
same,relative viability,[2]; first compound 0.02 µM,0.391
same,relative viability,[2]; first compound 0.06325 µM,0.361
same,relative viability,[2]; first compound 0.2 µM,0.438
same,relative viability,[2]; first compound 0.6325 µM,0.45
same,relative viability,[2]; first compound 2 µM,0.397
HCC-15,relative viability,BGJ398 + AZD7762; first compound 0.01 µM,1.15
same,relative viability,BGJ398 + AZD7762; first compound 0.03162 µM,1.06
same,relative viability,BGJ398 + AZD7762; first compound 0.1 µM,1.24
same,relative viability,BGJ398 + AZD7762; first compound 0.3162 µM,1.17
same,relative viability,BGJ398 + AZD7762; first compound 1 µM,1.39
same,relative viability,[1]; first compound 0.02 µM,0.278
same,relative viability,[1]; first compound 0.06325 µM,0.197
same,relative viability,[1]; first compound 0.2 µM,0.271
same,relative viability,[1]; first compound 0.6325 µM,0.304
same,relative viability,[1]; first compound 2 µM,0.214
same,relative viability,BGJ398 + Pictilisib; first compound 0.01 µM,0.67
same,relative viability,BGJ398 + Pictilisib; first compound 0.03162 µM,0.703
same,relative viability,BGJ398 + Pictilisib; first compound 0.1 µM,0.79
same,relative viability,BGJ398 + Pictilisib; first compound 0.3162 µM,0.805
same,relative viability,BGJ398 + Pictilisib; first compound 1 µM,0.723
same,relative viability,[2]; first compound 0.02 µM,0.699
same,relative viability,[2]; first compound 0.06325 µM,0.612
same,relative viability,[2]; first compound 0.2 µM,0.71
same,relative viability,[2]; first compound 0.6325 µM,0.675
same,relative viability,[2]; first compound 2 µM,0.634
ABC-1,relative viability,BGJ398 + AZD7762; first compound 0.01 µM,0.713
same,relative viability,BGJ398 + AZD7762; first compound 0.03162 µM,0.964
same,relative viability,BGJ398 + AZD7762; first compound 0.1 µM,0.898
same,relative viability,BGJ398 + AZD7762; first compound 0.3162 µM,0.572
same,relative viability,BGJ398 + AZD7762; first compound 1 µM,1.13
same,relative viability,[1]; first compound 0.06325 µM,0.872
same,relative viability,[1]; first compound 0.2 µM,0.616
same,relative viability,[1]; first compound 0.6325 µM,0.519
same,relative viability,[1]; first compound 2 µM,0.982
same,relative viability,BGJ398 + Pictilisib; first compound 0.01 µM,0.63
same,relative viability,BGJ398 + Pictilisib; first compound 0.03162 µM,0.721
same,relative viability,BGJ398 + Pictilisib; first compound 0.1 µM,0.722
same,relative viability,BGJ398 + Pictilisib; first compound 0.3162 µM,0.693
same,relative viability,BGJ398 + Pictilisib; first compound 1 µM,0.916
same,relative viability,[2]; first compound 0.02 µM,0.712
same,relative viability,[2]; first compound 0.06325 µM,0.88
same,relative viability,[2]; first compound 0.2 µM,0.859
same,relative viability,[2]; first compound 0.6325 µM,0.782
same,relative viability,[2]; first compound 2 µM,0.735
LCLC-103H,relative viability,BGJ398 + AZD7762; first compound 0.01 µM,0.796
same,relative viability,BGJ398 + AZD7762; first compound 0.03162 µM,0.86
same,relative viability,BGJ398 + AZD7762; first compound 0.1 µM,0.804
same,relative viability,BGJ398 + AZD7762; first compound 0.3162 µM,0.658
same,relative viability,BGJ398 + AZD7762; first compound 1 µM,0.656
same,relative viability,[1]; first compound 0.02 µM,1.02
same,relative viability,[1]; first compound 0.06325 µM,0.966
same,relative viability,[1]; first compound 0.2 µM,0.906
same,relative viability,[1]; first compound 0.6325 µM,0.966
same,relative viability,[1]; first compound 2 µM,0.806
same,relative viability,BGJ398 + Pictilisib; first compound 0.01 µM,0.652
same,relative viability,BGJ398 + Pictilisib; first compound 0.03162 µM,0.576
same,relative viability,BGJ398 + Pictilisib; first compound 0.1 µM,0.486
same,relative viability,BGJ398 + Pictilisib; first compound 0.3162 µM,0.52
same,relative viability,BGJ398 + Pictilisib; first compound 1 µM,0.465
same,relative viability,[2]; first compound 0.02 µM,0.75
same,relative viability,[2]; first compound 0.06325 µM,0.788
same,relative viability,[2]; first compound 0.2 µM,0.727
same,relative viability,[2]; first compound 0.6325 µM,0.725
same,relative viability,[2]; first compound 2 µM,0.729
NCI-H441,relative viability,BGJ398 + AZD7762; first compound 0.03162 µM,1.07
same,relative viability,BGJ398 + AZD7762; first compound 0.1 µM,1.25
same,relative viability,BGJ398 + AZD7762; first compound 0.3162 µM,0.961
same,relative viability,BGJ398 + AZD7762; first compound 1 µM,1.56
same,relative viability,[1]; first compound 0.02 µM,0.294
same,relative viability,[1]; first compound 0.06325 µM,0.334
same,relative viability,[1]; first compound 0.2 µM,0.332
same,relative viability,[1]; first compound 0.6325 µM,0.364
same,relative viability,[1]; first compound 2 µM,0.255
same,relative viability,BGJ398 + Pictilisib; first compound 0.01 µM,0.416
same,relative viability,BGJ398 + Pictilisib; first compound 0.03162 µM,0.496
same,relative viability,BGJ398 + Pictilisib; first compound 0.1 µM,0.558
same,relative viability,BGJ398 + Pictilisib; first compound 0.3162 µM,0.54
same,relative viability,BGJ398 + Pictilisib; first compound 1 µM,0.487
same,relative viability,[2]; first compound 0.02 µM,0.539
same,relative viability,[2]; first compound 0.06325 µM,0.708
same,relative viability,[2]; first compound 0.2 µM,0.559
same,relative viability,[2]; first compound 0.6325 µM,0.481
same,relative viability,[2]; first compound 2 µM,0.345
EPLC-272H,relative viability,BGJ398 + AZD7762; first compound 0.01 µM,0.209
same,relative viability,BGJ398 + AZD7762; first compound 0.03162 µM,0.21
same,relative viability,BGJ398 + AZD7762; first compound 0.1 µM,0.252
same,relative viability,BGJ398 + AZD7762; first compound 0.3162 µM,0.174
same,relative viability,BGJ398 + AZD7762; first compound 1 µM,0.306
same,relative viability,[1]; first compound 0.02 µM,0.447
same,relative viability,[1]; first compound 0.06325 µM,0.214
same,relative viability,[1]; first compound 0.2 µM,0.328
same,relative viability,[1]; first compound 0.6325 µM,0.267
same,relative viability,[1]; first compound 2 µM,0.198
same,relative viability,BGJ398 + Pictilisib; first compound 0.01 µM,0.323
same,relative viability,BGJ398 + Pictilisib; first compound 0.03162 µM,0.296
same,relative viability,BGJ398 + Pictilisib; first compound 0.1 µM,0.255
same,relative viability,BGJ398 + Pictilisib; first compound 0.3162 µM,0.255
same,relative viability,BGJ398 + Pictilisib; first compound 1 µM,0.18
same,relative viability,[2]; first compound 0.02 µM,0.865
same,relative viability,[2]; first compound 0.06325 µM,0.64
same,relative viability,[2]; first compound 0.2 µM,0.971
same,relative viability,[2]; first compound 0.6325 µM,0.898
same,relative viability,[2]; first compound 2 µM,0.542
